{"source": "patent US8450362B2", "about": "“Amidine-containing compounds useful as muscarinic receptor antagonists” (Theravance, Inc., priority 2007, dated 2013)", "key": {"[1]": {"test_system": "MCh bronchoconstrictor response", "assay": "Rat Einthoven assay (bronchoprotection, inhaled dosing)", "format": "in vivo", "details": "inhalation; for ID50 (bronchoprotection): 1.5 hrs post-dose", "method": "All test compounds are diluted in sterile water and are dosed via the inhalation route (IH). The rats (Sprague-Dawley, male, 250-350 g) are exposed to the aerosol generated from an LC Star Nebulizer Set and driven by a mixture of gases (5% CO2/95% atmospheric air). Each test compound solution is nebulized over a 10 minute time period in a pie shaped dosing chamber capable of holding six rats. At predetermined time points after inhalation of compound, the Einthoven assay is performed.\nThirty minutes prior to the start of pulmonary evaluation, the animals are anesthetized with inactin (thiobutabarbital, 120 mg/kg IP). The jugular vein is catheterized with saline filled polyethylene catheters (PE-50) and used to infuse MCh. The trachea is then dissected and cannulated with a 14G needle and used for rat ventilation during pulmonary evaluation. Once surgery is complete, rats are ventilated using a piston respirator set at a stroke volume of 1 ml/100 g body weight but not exceeding 2.5 ml volume, and at a rate of 90 strokes per minute.\nThe changes in pressure that occur with each breath are measured. Baseline values are collected for at least 2.5 minutes then rats are challenged non-cumulatively with 2-fold incremental increases of the bronchoconstrictor MCh (5, 10, 20, 40 and 80 μg/ml). The MCh is infused for 2.5 minutes from a syringe pump at a rate of 2 mL/kg/min. The animals are euthanized upon completion of the studies.\nChanges in ventilation pressure (cm H2O) in treated animals are expressed as % inhibition of MCh response relative to control animals.\nStandard muscarinic antagonists were evaluated in the rat Einthoven assay 1.5 hrs post-dose.\nStandards tiotropium and ipratropium were also evaluated 24 hr and/or 6 hr post-dose in the rat Einthoven assay. […] The observed loss of activity at this time point (6 hr) is consistent with its relatively short duration of action in the clinic."}, "[2]": {"test_system": "pilocarpine-induced salivation", "assay": "Rat antisialagogue assay", "format": "in vivo", "details": "evaluated at 1, 6 and 24 hr post-dose", "method": "Rats (Sprague-Dawley, male, 250-350 g) are dosed, anesthetized and cannulated as described for Assay 3. At predetermined time points and after surgery, animals are placed on their dorsal side at a 20° incline with their head in a downward slope. A pre-weighed gauze pad is inserted in the animal's mouth and the muscarinic agonist pilocarpine (PILO) (3 mg/kg, iv.) is administered. Saliva produced during 10 minutes post-PILO is measured gravimetrically by determining the weight of the gauze pad before and after PILO. Antisialagogue effects are expressed as % inhibition of salivation relative to control animals.\nThe rat antisialagogue assay was developed to assess systemic exposure and calculate the lung selectivity index (LSI) of test compounds. The standard, tiotropium, was evaluated in this model at 1, 6, and 24 hr post-dose. […] This finding is consistent with the peak effects observed in the Einthoven assay. This model is a modified version of the procedure described in Rechter, “Estimation of anticholinergic drug effects in mice by antagonism against pilocarpine-induced salivation” Ata Pharmacol Toxicol 24:243-254 […]. The mean weight of saliva in vehicle-treated animals, at each pre-treatment time, is calculated and used to compute % inhibition of salivation, at the corresponding pre-treatment time, at each dose. […]"}}}
{"smiles": "C[N+]1(C)CCC(OC(=O)C(O)(c2ccccc2)C2CCCC2)C1", "note": "(centres unmarked) [glycopyrrolate]", "values": [{"measurement": "ID50 (bronchoprotection)", "setting": "[1]", "result": 15, "unit": "µg/mL"}]}
{"smiles": "CC(C)[N+]1(C)[C@@H]2CC[C@H]1C[C@@H](OC(=O)C(CO)c1ccccc1)C2", "note": "(some centres unmarked) [ipratropium]", "values": [{"measurement": "fold less potent 6-hr post-dose compared to 1.5 hr potency", "setting": "[1]; 10 and 30 μg/ml, 6 hr vs 1.5 hr", "result": "about 3 fold"}, {"measurement": "ID50 (bronchoprotection)", "setting": "[1]", "result": 4.4, "unit": "µg/mL"}]}
{"smiles": "C[N+]1(C)[C@@H]2C[C@@H](OC(=O)C(O)(c3cccs3)c3cccs3)C[C@H]1[C@@H]1O[C@@H]12", "note": "[tiotropium]", "values": [{"measurement": "6 hr versus 24 hr potency values", "setting": "[1]", "result": "not significantly different from each other"}, {"measurement": "ID50 (bronchoprotection)", "setting": "[1]", "result": 6, "unit": "µg/mL"}, {"measurement": "fold more potent at 6 hr and 24 hr compared to 1.5 hr potency", "setting": "[1]; 6 hr and 24 hr vs 1.5 hr", "result": "about 2 fold"}, {"measurement": "time of peak bronchoprotection post-dose", "setting": "[1]; slow onset of effect", "result": 6, "unit": "h"}, {"measurement": "time post dose of greatest potency at inhibiting pilocarpine-induced salivation", "setting": "[2]", "result": 6, "unit": "h"}]}
